Reference: patent US11008339B2, “Substituted pyrazole compounds containing pyrimidine and preparation method and use thereof” (Shenyang Sinochem Agrochemicals R&D Co., Ltd., priority 2015, dated 2021)
Where two headings read alike, the source gives them in different places.

Columns and labels:
rice blast = experiment: microbe, parasite or virus in culture; format: cell-based; details: Pyricularia oryzae, 24 h, read-out: inhibition rate against rice blast
diamond back moth = experiment: Bioactivity test against diamond back moth (airbrush spray, leaf disc); format: in vivo; details: for Insecticidal activity against diamond back moth (%): 600 mg/L, contrastive test (Table 133)
Description: (§1) Compounds were dissolved in mixed solvent (acetone:methanol=1:1), and diluted to required concentration with water containing 0.1% of tween 80.
(§2) Diamond back moth, armyworm, peach aphid and carmine spider mite were used as targets and the method of spraying by airbrush was used for determination of insecticidal biassays.
The method of spraying by airbrush: The cabbage leaves were made into plates of 2 cm diameter by use of punch. A test solution (0.5 ml) was sprayed by airbrush at the pressure of 0.7 kg/cm^2 to both sides of every plate. 10 Second instar larvae were put into the petri-dishes after the leaf disc air-dried and 3 replicates were set for each treatment. Then the insects were maintained in observation room (25° C., 60˜70% R.H.). Scores were conducted and mortalities were calculated after 72 h.

cucumber anthracnose = experiment: Protective activity in vivo (whole plant spray) against cucumber anthracnose; details: for inhibition at 100 µg/mL: Cucumis sativus, read-out: protective activity (%) against cucumber anthracnose; for control against cucumber anthracnose: 6.25 ppm, protective, in vivo
Description: (§3) The method is as followed: The whole plant is used in this test. The compound is dissolved in a proper solvent to get mother solution. The proper solvent is selected from acetone, methanol, DMF and so on according to their dissolving capability to the sample. The volume rate of solvent and testing solution (v/v) is equal to or less than 5%. […] The testing solution is sprayed to the host plant by a special plant sprayer. The plant is inoculated with fungus after 24 hours. According to the infecting characteristic of fungus, the plant is stored in a humidity chamber and then transferred into greenhouse after infection is finished. And the other plants are placed in greenhouse directly.

wheat powdery mildew = experiment: Protective activity in vivo (whole plant spray) against wheat powdery mildew; details: 100 mg/L, comparative test (Table 130); for inhibition at 100 µg/mL: Triticum aestivum
Description: as §3

carmine spider mite = experiment: Bioactivity test against carmine spider mite (airbrush spray); format: in vivo; details: contrastive test (Table 135)
Description: as §1, §2
The method: Broadbean shoots with two true leaves in pot were taken, the healthy adults of carmine spider mite were inoculated to the leaves. The adults were counted and then sprayed with airbrush at the pressure of 0.7 kg/cm^2 and at dose of 0.5 ml. 3 replicates were set for each treatment. And then they were maintained in standard observation room. Scores were conducted and mortalities were calculated after 72 hrs.

[1] = system: Green peach aphids (Myzus Persicae Sulzer); experiment: Bioactivity test against green peach aphid (airbrush foliar spray); format: in vivo; details: 100 mg/L, contrastive test (Table 134)
Description: as §1, §2
Method: Filter papers were put in culture dishes (Diameter=6 cm), and water was dripped on filter papers for preserving moisture. Green peach aphids (Myzus Persicae Sulzer) were maintained on cabbage. Leaves (Diameter=3 cm) of approximately 15-30 aphids were put in the culture dishes. Bioactivity tests were used the method of Airbrush Foliar Spray, pressure=10 psi (0.7 kg/cm2), spray volume=0.5 mL. The studies were conducted at […] 25±1 C in incubator cabinets with 60±5% RH. Survey the survival aphids after 48 h and calculate the death rates.

corn rust = experiment: Protective activity in vivo (whole plant spray) against corn rust; details: comparative test (Table 131)
Description: as §3

cucumber gray mold = experiment: Fungicidal activity in vitro (96-well, inhibition rate) against cucumber gray mold; format: cell-based; details: 24 hours
cucumber downy mildew = experiment: Protective activity in vivo (whole plant spray) against cucumber downy mildew; details: for inhibition at 25 µg/mL: Cucumis sativus, read-out: protective activity (%) against cucumber downy mildew
Description: as §3

[2] = 100 mg/L, comparative test (Table 132)
[3] = 25 mg/L, comparative test (Table 129)

## Cc1cc(N(C)Cc2c(C)nn(-c3ccccc3)c2C)nc(C)n1 [CK5]
Rice blast
  inhibition at 25 ppm: 0%
Diamond back moth
  Insecticidal activity against diamond back moth (%): 0%
Cucumber anthracnose; [2]
  inhibition at 100 µg/mL: 0%
Wheat powdery mildew
  inhibition at 100 µg/mL: 0%
Carmine spider mite; 600 mg/L
  Insecticidal activity against carmine spider mite (%): 58%
[1]
  Insecticidal activity against peach aphid (%): 22%
Corn rust; 25 mg/L
  control effect against corn rust (%): 60%
Corn rust; 100 mg/L
  control effect against corn rust (%): 70%
Cucumber gray mold
  inhibition at 25 ppm: 0%
Cucumber downy mildew; [3]
  inhibition at 25 µg/mL: 0%

## Clc1ccc(-n2ccc(OCCNc3ncnc4ccccc34)n2)cc1 [Compound 40-19]
Cucumber anthracnose; [2]
  protective activity (%) against cucumber anthracnose: 100%
Cucumber downy mildew; [3]
  protective activity (%) against cucumber downy mildew: 96%

## CC(COc1ccn(-c2ccc(Cl)cc2)n1)Nc1ncnc2scc(Cl)c12 (stereo not drawn) [Compound 44-19]
Rice blast
  inhibition at 2.8 ppm: > 80%
  inhibition at 8.3 ppm: > 80%
  inhibition at 25 ppm: > 80%
Wheat powdery mildew
  inhibition at 100 µg/mL: 100%
Carmine spider mite; 100 mg/L
  Insecticidal activity against carmine spider mite (%): 100%
Carmine spider mite; 600 mg/L
  Insecticidal activity against carmine spider mite (%): 100%
Cucumber gray mold
  inhibition at 25 ppm: > 80%
Cucumber downy mildew; [3]
  inhibition at 25 µg/mL: 100%

## Clc1csc2ncnc(NCCOc3ccn(-c4ccccc4)n3)c12 [Compound 42-1]
Cucumber anthracnose; [2]
  protective activity (%) against cucumber anthracnose: 95%
Cucumber anthracnose
  control against cucumber anthracnose: 90%
Cucumber downy mildew; [3]
  protective activity (%) against cucumber downy mildew: 100%

## Clc1cccc(-n2ccc(OCCNc3ncnc4scc(Cl)c34)n2)c1 [Compound 42-18]
Cucumber downy mildew; [3]
  protective activity (%) against cucumber downy mildew: 100%

## FC(F)(F)c1ccc(-n2ccc(OCCNc3ncnc4scc(Cl)c34)n2)cc1 [Compound 42-69]
Cucumber anthracnose; [2]
  protective activity (%) against cucumber anthracnose: 95%
Wheat powdery mildew
  protective activity (%) against wheat powdery mildew: 100%
Corn rust; 25 mg/L
  control effect against corn rust (%): 85%
Corn rust; 100 mg/L
  control effect against corn rust (%): 90%
Cucumber downy mildew; [3]
  protective activity (%) against cucumber downy mildew: 80%

## COc1c(Cl)ncnc1NCCCOc1ccn(-c2ccc(C(F)(F)F)cc2)n1 [Compound 123-69]
Cucumber anthracnose; [2]
  protective activity (%) against cucumber anthracnose: 90%
Wheat powdery mildew
  protective activity (%) against wheat powdery mildew: 100%

## Cc1ccc(-n2ccc(OCCNc3ncnc4ccccc34)n2)cc1 [Compound 40-57]
Cucumber anthracnose; [2]
  protective activity (%) against cucumber anthracnose: 98%
Cucumber anthracnose
  control against cucumber anthracnose: 90%

## Cc1ncnc(NCCOc2ccn(-c3ccc(Cl)cc3)n2)c1Cl [Compound 31-19]
Cucumber anthracnose
  inhibition at 100 µg/mL: 90%
Cucumber downy mildew
  inhibition at 25 µg/mL: 100%

## Cc1cc(N(C)Cc2cnn(-c3ccccc3)c2)nc(C(C)C)n1 [CK4]
Rice blast
  inhibition at 25 ppm: 0%
Diamond back moth
  Insecticidal activity against diamond back moth (%): 0%
Cucumber anthracnose; [2]
  inhibition at 100 µg/mL: 0%
Wheat powdery mildew
  inhibition at 100 µg/mL: 0%
Carmine spider mite; 600 mg/L
  Insecticidal activity against carmine spider mite (%): 59%
[1]
  Insecticidal activity against peach aphid (%): 0%
Corn rust; 25 mg/L
  control effect against corn rust (%): 0%
Corn rust; 100 mg/L
  control effect against corn rust (%): 0%
Cucumber gray mold
  inhibition at 25 ppm: 0%
Cucumber downy mildew; [3]
  inhibition at 25 µg/mL: 0%

## CCc1ncnc(NCCOc2ccn(-c3c(Cl)cc(Cl)cc3Cl)n2)c1Cl [Compound 32-30]
Wheat powdery mildew
  protective activity (%) against wheat powdery mildew: 100%
Cucumber downy mildew; [3]
  protective activity (%) against cucumber downy mildew: 100%

## Clc1ccc(-n2ccc(OCCNc3ncnc4ccccc34)n2)c(Cl)c1 [Compound 40-21]
Cucumber downy mildew; [3]
  protective activity (%) against cucumber downy mildew: 100%

## CC(COc1ccn(-c2ccc(Cl)cc2)n1)Nc1ncnc(Cl)c1Cl (stereo not drawn) [Compound 35-19]
Wheat powdery mildew
  protective activity (%) against wheat powdery mildew: 70%
Cucumber downy mildew; [3]
  protective activity (%) against cucumber downy mildew: 100%

## Cc1ncnc(NCCOc2ccn(-c3c(Cl)cccc3Cl)n2)c1Cl [Compound 31-23]
Cucumber downy mildew; [3]
  protective activity (%) against cucumber downy mildew: 100%

## CCc1ncnc(NCCCOc2ccn(-c3ccc(C(F)(F)F)cc3)n2)c1Cl [Compound 125-69]
Wheat powdery mildew
  protective activity (%) against wheat powdery mildew: 100%

## CCc1ncnc(NCc2cnn(-c3ccccc3)c2C)c1Cl [CK1]
Rice blast
  inhibition at 25 ppm: 0%
Diamond back moth
  Insecticidal activity against diamond back moth (%): 43%
[1]
  Insecticidal activity against peach aphid (%): 0%
Cucumber gray mold
  inhibition at 25 ppm: 0%
Cucumber downy mildew; [3]
  inhibition at 25 µg/mL: 20%

## Cc1c(Cl)ncnc1NCCCOc1ccn(-c2ccc(C(F)(F)F)cc2)n1 [Compound 122-69]
Cucumber anthracnose; [2]
  protective activity (%) against cucumber anthracnose: 85%
Wheat powdery mildew
  protective activity (%) against wheat powdery mildew: 100%

## Clc1cc(Cl)c(-n2ccc(OCCNc3ncnc4ccccc34)n2)c(Cl)c1 [Compound 40-30]
Cucumber downy mildew; [3]
  protective activity (%) against cucumber downy mildew: 100%

## FC(F)c1ncnc(NCCCOc2ccn(-c3ccc(C(F)(F)F)cc3)n2)c1Cl [Compound 126-69]
Cucumber anthracnose; [2]
  protective activity (%) against cucumber anthracnose: 95%
Wheat powdery mildew
  protective activity (%) against wheat powdery mildew: 100%
Cucumber downy mildew; [3]
  protective activity (%) against cucumber downy mildew: 70%

## CCc1ncnc(NC(C)COc2ccn(-c3ccc(Cl)cc3)n2)c1Cl (stereo not drawn) [Compound 37-19]
Diamond back moth
  Insecticidal activity against diamond back moth (%): 100%
Diamond back moth; 600 ppm, mortality after 72 h
  control against diamond back moth: 100%
Wheat powdery mildew
  protective activity (%) against wheat powdery mildew: 95%
Carmine spider mite; 100 mg/L
  Insecticidal activity against carmine spider mite (%): 100%
Carmine spider mite; 600 mg/L
  Insecticidal activity against carmine spider mite (%): 100%
[1]
  Insecticidal activity against peach aphid (%): 84%
Corn rust; 25 mg/L
  control effect against corn rust (%): 90%
Corn rust; 100 mg/L
  control effect against corn rust (%): 100%

## Fc1ccc(-n2ccc(OCCNc3ncnc4ccccc34)n2)cc1 [Compound 40-4]
Cucumber downy mildew; [3]
  protective activity (%) against cucumber downy mildew: 100%

## Clc1ccccc1-n1ccc(OCCNc2ncnc3scc(Cl)c23)n1 [Compound 42-17]
Cucumber downy mildew; [3]
  protective activity (%) against cucumber downy mildew: 100%

## CCc1ncnc(NCc2cnn(-c3ccccc3)c2C(F)(F)F)c1Cl [CK2]
Rice blast
  inhibition at 25 ppm: 0%
Diamond back moth
  Insecticidal activity against diamond back moth (%): 20%
Wheat powdery mildew
  inhibition at 100 µg/mL: 50%
Cucumber gray mold
  inhibition at 25 ppm: 0%
Cucumber downy mildew; [3]
  inhibition at 25 µg/mL: 20%

## FC(F)(F)c1ccc(-n2ccc(OCCCNc3ncnc4scc(Cl)c34)n2)cc1 [Compound 128-69]
Wheat powdery mildew
  protective activity (%) against wheat powdery mildew: 100%

## Clc1ccc(-n2ccc(OCCNc3ncnc4scc(Cl)c34)n2)c(Cl)c1 [Compound 42-21]
Cucumber downy mildew; [3]
  protective activity (%) against cucumber downy mildew: 100%

## Clc1cccc(-n2ccc(OCCNc3ncnc4ccccc34)n2)c1 [Compound 40-18]
Cucumber downy mildew; [3]
  protective activity (%) against cucumber downy mildew: 100%

## c1ccc(-n2ccc(OCCNc3ncnc4ccccc34)n2)cc1 [Compound 40-1]
Cucumber downy mildew; [3]
  protective activity (%) against cucumber downy mildew: 70%

## FC(F)(F)c1ccc(-n2ccc(OCCCNc3ncnc4ccccc34)n2)cc1 [Compound 127-69]
Cucumber anthracnose; [2]
  protective activity (%) against cucumber anthracnose: 92%
Wheat powdery mildew
  protective activity (%) against wheat powdery mildew: 100%
Cucumber downy mildew; [3]
  protective activity (%) against cucumber downy mildew: 70%

## Cc1ncnc(NCCOc2ccn(-c3c(Cl)cc(Cl)cc3Cl)n2)c1Cl [Compound 31-30]
Wheat powdery mildew
  protective activity (%) against wheat powdery mildew: 98%
Cucumber downy mildew; [3]
  protective activity (%) against cucumber downy mildew: 100%
